The target in one experiment is T1, 5-HT2 receptors (Rattus norvegicus, UniProt P14842).
T1 construct: 5-HT2 Receptors in Rat Cortex in vitro; from tissue; host or cells: rat cortex membranes
The experiment in a line: Inhibition of ^3 H-Ketanserin Binding to 5-HT2 Receptors in Rat Cortex in vitro. The settings on record: ^3 H-Ketanserin 0,5 nM; rat cortex membranes; read-out: 5-HT2 binding ^3 H ketanserin, IC50. As to the method: Inhibition of ^3 H-Ketanserin Binding to 5-HT2 Receptors in Rat Cortex in vitro
By this method the inhibition by drugs of the binding of ^3 H-Ketanserin (0,5 nM) to 5-HT2 receptors in membranes from rat is determined in vitro. The method is described in Hyttel, Pharmacol. & Toxicol.

For another experiment, the target named is dopamine D2 receptors (Rattus norvegicus, UniProt P61169). The experiment in a line: biochemical. It counts as binding. As to the method: Inhibition of ^3 H-Spiroperidol Binding to Dopamine D2 Receptors in Rat Corpus Striatum in vitro
Chain of dopamine D2 receptors (P61169 whole entry): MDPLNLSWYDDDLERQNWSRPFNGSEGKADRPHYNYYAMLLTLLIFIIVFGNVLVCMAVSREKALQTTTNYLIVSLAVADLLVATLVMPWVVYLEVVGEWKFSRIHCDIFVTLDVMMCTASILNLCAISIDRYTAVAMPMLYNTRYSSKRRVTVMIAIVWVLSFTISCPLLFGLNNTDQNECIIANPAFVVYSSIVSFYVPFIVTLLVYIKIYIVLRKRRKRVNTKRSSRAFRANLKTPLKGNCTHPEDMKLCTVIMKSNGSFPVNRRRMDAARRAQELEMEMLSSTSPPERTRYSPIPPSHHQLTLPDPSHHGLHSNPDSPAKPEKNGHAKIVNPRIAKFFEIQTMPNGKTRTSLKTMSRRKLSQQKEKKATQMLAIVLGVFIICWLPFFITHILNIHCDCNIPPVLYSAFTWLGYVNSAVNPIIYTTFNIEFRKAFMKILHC
By this method the inhibition by drugs of the binding of ^3 H-spiroperidol (0.5 nM) to dopamine D2 receptors in membranes from rat corpus striatum is determined in vitro.

For experiment [1] the following is noted: in vivo; cited from earlier work.
For experiment [2] the following is noted: in vivo; cited from earlier work. The source holds these as a separate data set.
For experiment [3] the following is noted: in vivo; cited from earlier work. This is another data set of the same source.
For experiment [4] the following is noted: in vivo; cited from earlier work. This is another data set of the same source.
For experiment [5] the following is noted: in vivo; cited from earlier work. This is another data set of the same source.
Where [6] appears, read: read-out: Dopamin D2 binding ^3 H spiroperidol, IC50.

These results are taken from US5789404A, “3-substituted 1-arylindole compounds” (H. Lundbeck A/S, priority 1993, dated 1998).

SMILES strings stand for the structures. Counter-ions that a name gives are not always drawn. Like-named read-outs stand apart in the source and are kept apart here.

T1 sequence (P14842 whole entry): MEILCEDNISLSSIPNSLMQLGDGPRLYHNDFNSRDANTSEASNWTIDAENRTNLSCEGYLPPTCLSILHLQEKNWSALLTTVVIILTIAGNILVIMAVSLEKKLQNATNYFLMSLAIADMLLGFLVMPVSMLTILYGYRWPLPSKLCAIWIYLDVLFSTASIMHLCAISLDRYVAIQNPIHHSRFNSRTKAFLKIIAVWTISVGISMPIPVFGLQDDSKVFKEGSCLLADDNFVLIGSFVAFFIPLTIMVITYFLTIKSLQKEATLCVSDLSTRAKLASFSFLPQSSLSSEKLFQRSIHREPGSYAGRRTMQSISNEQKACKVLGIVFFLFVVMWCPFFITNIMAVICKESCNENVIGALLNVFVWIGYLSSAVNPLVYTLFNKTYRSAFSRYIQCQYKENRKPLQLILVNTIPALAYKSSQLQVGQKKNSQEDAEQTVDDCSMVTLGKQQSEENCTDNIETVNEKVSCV

Regarding `CNCc1cn(-c2ccc(F)cc2)c2ccc(Cl)cc12` [Compound 13b, N-methyl-[5-chloro-1-(4-fluorophenyl)-3-1H-indolylmethyl]amine hydrochloride], the IC50 came out at 21 nM on 5-HT2 receptors and 33 nM at dopamine D2 receptors (setting [6]).
Turning to `CN(C)CCc1cn(-c2ccc(F)cc2)c2ccc(Cl)cc12` [Compound 14b, N,N-Dimethyl-2-(5-chloro-1-(4-fluorophenyl)-3-1H-indolyl)ethylamine maleate], the 50% inhibitory concentration (IC50) was 8.9 nM at 5-HT2 receptors and 38 nM at dopamine D2 receptors (setting [6]).
In the case of `Fc1ccc(-n2cc(CCN3CCOCC3)c3cc(Cl)ccc32)cc1` [Compound 14c, 5-chloro-1-(4-fluorophenyl)-3-(2-(4-morpholinyl)ethyl)-1H-indole fumarate], the half-maximal inhibitory concentration (IC50) on 5-HT2 receptors came to 22 nM; on dopamine D2 receptors, 54 nM.
In the same order, the values of `CNCCc1cn(-c2ccc(F)cc2)c2ccc(Cl)cc12` [Compound 15a, N-methyl-2-(5-chloro-1-(4-fluorophenyl)-3-1H-indolyl)ethylamine Maleate] are 17 nM and 24 nM.
In the case of `CN(C)CCOc1cn(-c2ccc(F)cc2)c2ccc(Br)cc12` [Compound 16a, N,N-Dimethyl-2-[5-bromo-1-(4-fluorophenyl)-1H-indol-3-yloxy]ethylamine, Hydrochloride], the IC50 came out at 7 nM at 5-HT2 receptors and 6.2 nM at dopamine D2 receptors (setting [6]).
For `CN(C)CCOc1cn(-c2ccc(F)cc2)c2ccc(C#N)cc12` [Compound 17a, N,N-Dimethyl-2-[5-cyano-1-(4-fluorophenyl)-1H-indol-3-yloxy]ethylamine, Hydrochloride], the IC50 on 5-HT2 receptors turned out to be 21 nM; on dopamine D2 receptors (setting [6]), 0.98 nM.
Consider `Cc1nc2sccn2c(=O)c1CCN1CCC(=C(c2ccc(F)cc2)c2ccc(F)cc2)CC1` [ritanserin], for which, in experiment [1], the “antidepressant effect / depressive symptoms of schizophrenia” value was “shown to be an antidepressant and to improve depressive symptoms of schizophrenia”. Moreover, the “effects in an animal test indicative of anxiolytic drug activity” value in experiment [2] is recorded as “exert effects in an animal test indicative of anxiolytic drug activity”. The quality of sleep entry in experiment [3] is given as “improve the quality of sleep”. The neuroleptic-induced parkinsonism result in experiment [4] was “relieve neuroleptic-induced parkinsonism”. Besides, the “abuse of alcohol and drugs” value in experiment [5] was “reduce abuse of alcohol and drugs”.
